Test results published in patent US20220184091A1, “Methods of Treating Cancer with Chk1 Inhibitors” (Sierra Oncology, Inc., priority 2019, published 2022).

How the values were obtained:
H209 = assay: Survival of cancer cells after gemcitabine, H209; assay type: cell-based; details: H209 SCLC in vitro model
Method: (§1) SCLC cell lines were incubated with dimethyl sulfoxide (vehicle control), SRA737 or Gemcitabine for 96 hours at nine distinct concentrations, with the maximum dose being 10 μM. A CellTiter-Glo luminescent cell viability assay (Promega) was performed after 96 hours of treatment as per the manufacturer's specifications. IC50 values were estimated using Drexplorer, as previously described (Tong P, Coombes K R, Johnson F M, Byers L A, Diao L, Liu D D, Lee J J, Heymach J V, Wang J. drexplorer: A tool to explore dose-response relationships and drug-drug interactions. Bioinformatics. 2015 May 15; 31(10):1692-4.)

H524 = assay: Survival of cancer cells after gemcitabine, H524; assay type: cell-based; details: H524 SCLC in vitro model
Method: as §1

RPP = assay: Survival of cancer cells after gemcitabine, RPP; assay type: cell-based, murine; details: RPP SCLC in vitro model
Method: Data presented as mean±SD and p values by t-test ***p<0.001.
as §1

RPP tumor = assay: Flank RPP (SCLC) tumor growth in B6129F1 immunocompetent mice; assay type: in vivo, mouse; details: anti-PD-L1 300 μg 1-day-on/6-days-off; LDG 40 mg/kg 1-day-on/6-days-off; SRA737 100 mg/kg 2-day-on/5-days-off
Method: Tumors were evaluated twice weekly for the duration of the study. Tumor volumes were measured on all mice three times per week and calculated (width^2×length×0.4) using manual calipers. Once the average tumor size was in the range of 120-150 mm^3, mice were randomized into dosing groups using stratified sampling by assigning three animals per group for short-term reverse-phase protein array analysis and long-term treatment. Dosing schedules and duration varied depending on the study. Mice were weighed three times per week for the duration of the study, and a decrease in body weight >15% was considered indicative of a toxic dose. The Student t-test was used to determine statistical significance between compound- and vehicle-treated groups.
[…] 15A.

IFNβ, CXCL10 and CCL5 = assay: qPCR of IFNβ, CXCL10 and CCL5 in resected RPP tumors; assay type: in vivo, mouse; details: RPP tumors resected at Day 21; SRA737 2-days-on/5-days-off
Method: Data presented as mean±SD and p values by t-test * p<0.05, **p<0.01, ***p<0.001.
Real-time PCR was done using SYBR Select Master Mix (Life Technologies, cat #4472908) according to the manufacturer's protocol. Primers were purchased from Sigma Aldrich, Inc. Triplicate PCR reactions were run on ABI (7500 Fast Real Time PCR System). The comparative Ct method using the average 2ΔΔCT value for each set of triplicates was used, and the average of the biological replicates was calculated. Negative controls were included for every primer set, and GAPDH was used as the […].

## Nc1ccn([C@@H]2O[C@H](CO)[C@@H](O)C2(F)F)c(=O)n1 [gemcitabine]
H209
  response of cancer cells to gemcitabine alone: resistant
H524
  response of cancer cells to gemcitabine alone: resistant
RPP
  response of cancer cells to gemcitabine alone: resistant
RPP tumor
  anti-tumor effect (tumor volume): no significant anti-tumor effect
IFNβ, CXCL10 and CCL5
  expression of IFNβ, CCL5 and CXCL10: Neither LDG nor SRA737 monotherapy (2-days-on/5-days-off) showed any significant effect
